Drawing on publication PMC4330465 (Journal of Computer-Aided Molecular Design, 2014), this text covers IC50 for 30 compounds.

Where a name gives a salt, the structure may show the parent alone.

Broadly, the IC50 is the concentration at which inhibition is half-maximal.

In the first assay the target is T1, Recombinant Homo sapiens AChE (Homo sapiens, UniProt P22303).
T1 construct: made in house
T1 sequence (P22303 32-614): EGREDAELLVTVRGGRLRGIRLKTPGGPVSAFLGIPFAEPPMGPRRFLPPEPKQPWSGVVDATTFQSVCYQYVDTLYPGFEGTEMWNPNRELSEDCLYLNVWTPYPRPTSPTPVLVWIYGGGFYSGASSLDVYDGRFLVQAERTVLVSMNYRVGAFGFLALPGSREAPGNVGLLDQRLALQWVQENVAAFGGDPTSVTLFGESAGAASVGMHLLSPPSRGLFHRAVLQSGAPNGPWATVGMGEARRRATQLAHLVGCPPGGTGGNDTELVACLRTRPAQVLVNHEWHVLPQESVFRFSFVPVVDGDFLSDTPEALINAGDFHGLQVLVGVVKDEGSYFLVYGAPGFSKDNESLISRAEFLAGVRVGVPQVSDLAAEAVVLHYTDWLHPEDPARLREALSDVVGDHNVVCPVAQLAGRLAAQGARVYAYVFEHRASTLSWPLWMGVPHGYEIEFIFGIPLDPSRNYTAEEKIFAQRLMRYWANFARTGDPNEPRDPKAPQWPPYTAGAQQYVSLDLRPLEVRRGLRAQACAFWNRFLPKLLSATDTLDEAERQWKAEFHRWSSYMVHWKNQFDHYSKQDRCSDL
Experiment: not given
The conditions noted are these: test set Set3 (Table S15); cited from earlier work.
`CCN(CC)CCNS(=O)(=O)c1cccc(OC)c1` [compound 60]: the IC50 was 10 µM.

The next assay addresses T1, Recombinant Homo sapiens AChE. The assay is described as follows: biochemical. The class given is biochemical. The conditions noted are these: test sets Set1 and Set2 (Table S15), synthesized and biologically evaluated here. The protocol:
The training set of 18 compounds was experimentally evaluated for their ability to inhibit the enzymatic activity of AChE (Table 1 and Online Resource 1 for experimental details).
Reco mbinant Homo sapiens AChE was expressed according to previously described methods [ 6,7]. The enzymatic activit y wa s measured usi ng t he Ell ma n assa y [ 8] adapted to a 96-well for mat. The final assay volume was 200 µ L a nd all measurements were performed in 0.2 mM 5,5’-D ithiobis(2-nitrobenzoic acid) and 1 mM acethylthioc holine iodide in 0.1 M phosphate buffer pH 8.0. All measurements were perfor med in triplicates and the data was fitted to a (log)i nhibit or vs. response four parameters equation using GraphPad Prism (5.0). T he obtained IC50-values were recalculated to pIC50 according to pIC50=-log(IC50) in molar (M) concentration.
Regarding `Cc1ccc(C(=O)NCCC[n+]2ccccc2)cc1[N+](=O)[O-]` [compound 27], the IC50 worked out at 4.9 µM.

With `Cc1ccc(C(=O)NCC[n+]2ccccc2)cc1[N+](=O)[O-]` [compound 28], the IC50 amounted to 10 µM.

As for `Cc1ccc(C(=O)NCCCN(C)C)cc1[N+](=O)[O-]` [compound 29], the IC50 is 19 µM.

Take `O=[N+]([O-])c1ccccc1S(=O)(=O)NCC[n+]1ccsc1` [compound 30]: the IC50 is 12 µM.

Turning to `O=C(NCC[n+]1ccsc1)c1cc2cc([N+](=O)[O-])ccc2s1` [compound 31], the IC50 stood at 2.6 µM.

Regarding `O=C(COc1ccc(Cl)cc1)Nc1ccc(CN2CCCCC2)cc1` [compound 37], the IC50 came to 0.6 µM.

With `Cc1cc(C)c(OCC(=O)Nc2ccc(CN3CCCCC3)cc2)c(Cl)c1` [compound 38], the IC50 was 1.3 µM.

With `O=C(COc1ccccc1)Nc1ccc(CN2CCCCC2)cc1` [compound 39], the 50% inhibitory concentration (IC50) is 1.3 µM.

As to `O=C(COc1ccccc1Cl)Nc1ccc(CN2CCCCC2)cc1` [compound 40], the IC50 came to 0.6 µM.

Turning to `CCN(CC)Cc1ccc(NC(=O)COc2cc(C)ccc2C)cc1` [compound 41], the IC50 was found to be 8.1 µM.

On to `O=C(CCc1ccc(Cl)cc1Cl)Nc1ccc(CN2CCCCC2)cc1` [compound 42], for which the IC50 was 0.7 µM.

The same assay, now with this note: training set; triplicates; pH 8.0.
`CCN(CC)CCNS(=O)(=O)Cc1ccc(Cl)cc1` [compound 1]: the IC50 amounted to 13 µM.

In the case of `O=S(=O)(Cc1ccc(Cl)cc1)NCCCN1CCCCC1` [compound 2], the IC50 was found to be 445 µM.

In the case of `O=C(Cc1ccc(Cl)cc1)NCCCN1CCOCC1` [compound 3], the IC50 was above 1000 µM.

On to `Cc1ccc(S(=O)(=O)NCCN(C)C)cc1[N+](=O)[O-]` [compound 4], for which the IC50 is 69.5 µM.

For `Cc1ccc(S(=O)(=O)NCCCN2CCCCC2)cc1[N+](=O)[O-]` [compound 5], the IC50 was 101 µM.

As to `CCN(CC)CCCNC(=O)c1ccc(C)c([N+](=O)[O-])c1` [compound 6], the IC50 was found to be 12.8 µM.

Consider `COc1ccc(N2Cc3ccccc3C2=O)cc1S(=O)(=O)NCCN1CCOCC1` [compound 7], for which the IC50 worked out at 4250 µM.

For the compound `COc1ccc(N2Cc3ccccc3C2=O)cc1S(=O)(=O)NCCCN(C)C` [compound 8], the IC50 was 12 µM.

In the case of `CN(C)CCCNC(=O)c1sc2ccccc2c1Cl` [compound 9, 3-Chloro-benzo[b]thiophene-2-N-(3-dimethylamino-propyl)-carboxamide hydrochlor ide], the IC50 is 67.7 µM.

Consider `O=C(Cc1ccc(C(F)(F)F)cc1)NCCN1CCCCC1` [compound 10, N-[2-(Piperidin-1-yl)-ethyl] -2-(4-trifluoromethyl-phenyl) -acetamide], for which the IC50 came out at 323 µM.

Regarding `O=C(NCCN1CCOCC1)c1ccc(-c2ccc(Cl)cc2)o1` [compound 11, 5-(4-Chlorophenyl)-N-(2-morpholinoethyl)furan-2-carboxamide], the IC50 is 2430 µM.

Regarding `CCN(CC)CCCNC(=O)c1ccc(-c2ccc(Cl)cc2)o1` [compound 12, 5-(4-Chloro-phenyl)-furan-2-N-[3-(diethylamino)-propyl]-carboxamide hydrochloride], the IC50 came out at 78 µM.

Regarding `O=C(Cc1ccc(Cl)cc1)NCC[n+]1ccccc1` [compound 13, 1-(2-[2-(4 -Chloro-phenyl)-acetylamino]-ethyl)-pyridinium bromide], the IC50 came out at 25 µM.

As to `O=C(NCCC[n+]1ccccc1)c1sc2ccccc2c1Cl` [compound 14, 1-(3-[(3-Chloro-benzo[b]thiophen-2-carbonyl)-amino] -propyl)-pyridinium chloride], the IC50 worked out at 6.6 µM.

For `O=S(=O)(Cc1ccc(C(F)(F)F)cc1)NCCC[n+]1ccccc1` [compound 15], the IC50 came out at 22.2 µM.

As to `O=C(NCCN1CCNCC1)c1sc2ccccc2c1Cl` [compound 16], the IC50 stood at 109 µM.

For the compound `O=S(=O)(Cc1ccc(C(F)(F)F)cc1)NCCCN1CCNCC1` [compound 17], the IC50 is 4200 µM.

On to `O=C(NCCCN1CCNCC1)c1ccc(-c2ccc(Cl)cc2)o1` [compound 18], for which the IC50 was found to be 136 µM.
